# From patent US7345078B2, “NF-κB inhibitors and uses thereof” (The Board of Trustees of Michigan State University, priority 2002, dated 2008)
# pIC50: −log10 of the molar value. Entries after “also recorded” stand apart in the source; their conditions may differ. Read-outs that look alike come from different tables or passages of the source.
# How the values were obtained:
# RIF-1 murine tumor = test: RIF-1 murine model of tumor growth delay; type: in vivo, mice; details: for Days Delay (tumor growth delay) / Median (days to 4x) / Days to 4x (Ave ±SE): IP, imidazoline 100 mg/kg, cis-platin 4 mg/kg, camptothecin 6 mg/kg; for Median (days to 4x): untreated 7.0; for Days to 4x (Ave ±SE): untreated 7.3 ± 0.6; for chemopotentiation of camptothecin: combinational treatment with camptothecin (CPT); for chemopotentiation of camptothecin / chemopotentiation of cis-platin: RIF-1 tumors in mice; for chemopotentiation of cis-platin: combinational treatment with cis-platin (CDDP)
# Protocol: Tumor cells were injected, bilaterally, into the backs of mice. When tumors reached 100 mm^3, the mice were treated with an intraperitoneal injection of the compound. Tumor volumes were measured 3 times a week until they reached 4 times the size they were on the first treatment day. Data is recorded as “Days to 4×’ or ratio of ‘Days to 4×” of the treated over untreated controls.
# NF-κB [1] = target: T1, NF-κB (Homo sapiens, UniProt P19838+Q04206); test: EMSA of nuclear NF-κB-DNA binding in nuclear extracts of PMA-stimulated Jurkat leukemia T-cells; type: cell-based; set-up: endogenous in cells; host or cells: Jurkat leukemia T-cells, clone E6-1 (ATCC), PMA-stimulated; nuclear extract; details: for inhibition at 0.1 µM: compound 0.1 μM (100 nM)
# T1 sequence (Q04206 whole entry): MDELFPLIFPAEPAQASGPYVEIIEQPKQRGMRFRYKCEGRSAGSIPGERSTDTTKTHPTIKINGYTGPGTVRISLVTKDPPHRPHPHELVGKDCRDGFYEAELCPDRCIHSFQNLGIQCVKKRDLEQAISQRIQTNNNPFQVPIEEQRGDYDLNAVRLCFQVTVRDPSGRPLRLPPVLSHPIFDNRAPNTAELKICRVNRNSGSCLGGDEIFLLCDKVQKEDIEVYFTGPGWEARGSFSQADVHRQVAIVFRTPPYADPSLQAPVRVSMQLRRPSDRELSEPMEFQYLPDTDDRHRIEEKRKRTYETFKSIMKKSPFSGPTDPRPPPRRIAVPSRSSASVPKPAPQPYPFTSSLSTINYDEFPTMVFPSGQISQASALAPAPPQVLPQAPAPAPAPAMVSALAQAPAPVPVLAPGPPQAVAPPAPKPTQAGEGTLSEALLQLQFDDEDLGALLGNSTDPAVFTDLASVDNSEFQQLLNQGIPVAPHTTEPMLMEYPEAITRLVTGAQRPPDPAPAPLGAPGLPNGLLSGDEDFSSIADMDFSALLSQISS
# T1 sequence (P19838 1-433 limits assumed): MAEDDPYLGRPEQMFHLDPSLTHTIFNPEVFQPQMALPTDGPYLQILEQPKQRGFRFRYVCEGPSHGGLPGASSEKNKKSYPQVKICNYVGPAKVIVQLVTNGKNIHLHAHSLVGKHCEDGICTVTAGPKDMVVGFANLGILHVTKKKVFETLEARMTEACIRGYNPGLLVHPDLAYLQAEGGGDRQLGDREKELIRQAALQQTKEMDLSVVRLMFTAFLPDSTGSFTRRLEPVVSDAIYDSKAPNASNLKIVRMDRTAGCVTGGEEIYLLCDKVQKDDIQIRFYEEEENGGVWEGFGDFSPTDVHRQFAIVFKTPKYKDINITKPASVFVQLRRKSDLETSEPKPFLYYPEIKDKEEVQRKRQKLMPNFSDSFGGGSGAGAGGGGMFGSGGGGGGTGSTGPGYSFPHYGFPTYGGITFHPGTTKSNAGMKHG
# Protocol: (§1) All compounds were evaluated for their potential anti-inflammatory activity by examining the activity of NF-κB in vitro in nuclear extracts using the procedure from Breton and Charbot-Fletcher (Breton et al., J. Pharmacol. Exp. Ther. 282 459-466 (1997)). […] The Jurkat cells (1×10^7 cells/mL) are subsequently treated with various concentrations of imidazoline for 30 minutes at 37° C. followed by PMA stimulation (5.0 ng/mL) for an additional 5 hours. Nuclear extracts are incubated for 20 minutes with a double stranded Cy3 labeled NF-κB consensus oligonucleotide, 5′-[…]-3′ (SEQ ID NO:1) at room temperature. The crude mixture is loaded on a 5% non-denaturing polyacrylamide gel prepared in 1×Tris borate/EDTA buffer and electrophoresed at 200V for 2 hours. After electrophoresis the gel is analyzed using a phosphorimager (Biorad FX PLUS) for detection of the NF-κB-DNA binding.
# EMSA assay for NF-κB-DNA binding was as follows. […] The Jurkat cells (1×10^6 cells/mL) were subsequently treated with various concentrations of the compounds for 30 minutes at 37° C. and 5% CO2 followed by PMA (50 ng/mL) and PHA ([…]) stimulation for an additional 30 minutes. The cells were harvested by centrifugation, washed in ice cold PBS and the nuclear extracts were prepared as previously described (Dignam, et al., Nucl. Acids Res 11: 1475-1489 (1983)). The protein concentration of the extracts was determined according to the Method of Bradford (1976) with BioRad reagents. Nuclear extracts are incubated for 20 minutes at room temperature with a double stranded Cy3 labeled NF-kB consensus oligonucleotide, 5′-[…] CCAGGC-3′ (SEQ ID NO:1). The binding mixture ([…]) contained 10 mM HEPES-NaOH pH 7.9, 4 mM tris-HCl, pH 7.9, 6.0 mM KCl, 1 mM EDTA, 1 mM DTT, 10% glycerol, 0.3 mg/mL bovide serum albumin and […] of poly (dI.dC). The binding mixtures ([…] of nuclear extract protein) were incubated for 20 minutes at room temrperature with 0.16 pmol of Cy3 labeled oligonucleotide. The mixture was loaded on a 4% polyacrylamide gel prepared in 1× tris borate/EDTA buffer and was electrophoresed at 200 V for 20 minutes. After electrophoresis the gel was analyzed using a phosphorimager (Biorad FX plus) for detection of the NF-kB—DNA binding.
# NF-κB [2] = target: T1, NF-κB; test: IC50 values in Mammalian Jurkat cells Leukemia T cells; type: cell-based; set-up: endogenous in cells; host or cells: Jurkat leukemia T-cells, clone E6-1 (ATCC), PMA-stimulated; nuclear extract; details: concentration at which 50% of the protein/enzyme is inhibited in cells
# Protocol: as §1
# IC50 values in Mammalian Jurkat cells Leukemia T cells: IC50 value is defined as the concentration of compounds at which 50% of the protein/enzyme is inhibited in cells (Table 3).
# Bacillus cereus = test: standardized disk diffusion method (zone diameter / MIC); type: cell-based; details: at the amount printed in the same cell
# Protocol: (§2) Compounds 4, 6, and 7 were tested for the inhibition of bacteria. A total of 9 bacterial strains were screened. The following Gram-negative and Gram-positive bacteria were included: Staphylococcus aureus, Enterobacter aerogenes, Esherichia coli, Klebsiella pneumonia, Pseudomonas aeruginosa, Serratia marcescens, Bacillus cerius, Bacillus subtillus and micrococcus luteus. Bacterial isolates were removed from storage, streaked on to nutrient agar plates and incubated for 18-24 hours at 35° C. A working bacterial suspension was prepared by suspending 3-5 isolated colonies in 5 mL saline solution. The turbidity of this suspension was carefully adjusted photometrically to equal that of a 0.5 McFarland standard. The zone diameters were determined by a standardized disk diffusion method using cation-supplemented Mueller-Hinton agar according to NCCLS guidelines (National Committee for Clinical Laboratory Standards. Methods for dilution Antimicrobial Susceptibility Tests for Bacteria that Grow Aerobically. Fifth Edition: Approved Standard M7-A5. Wayne, Pa.: NCCLS (2000)). Minimum inhibitory concentrations (MICs) were considered the lowest concentration that gave a clear zone of inhibition. The inoculated agar plates were incubated for 16-20 hours at 35° C. in ambient air. The diameters of the zones were read in millimeters.
# Bacillus subtillus = test: as above; type: cell-based; details: at the amount printed in the same cell
# Protocol: as §2
# Staphylococcus aureus = test: as above; type: cell-based; details: at the amount printed in the same cell
# Protocol: as §2
# Micrococcus luteus = test: as above; type: cell-based; details: at the amount printed in the same cell
# Protocol: as §2
# [3] = IP, doses 5.0 and 50 mg/kg
# Protocol: Prior to the combinatorial studies, the toxicity of the compounds was determined in the mouse model. […] In short, the drugs are dissolved in DMSO and 100 μL given to the mice on day 0 by intraperitoneal injection (IP). […] Weight and death were the two measures of toxicity.
# CEM cells = tested on: CEM cells
# Protocol: Imidazolines 28-33 were evaluated for their ability to enhance the activity of camptothecin in CEM cells. Induction of apoptosis is the hallmark of most chemotherapeutic agents including camptothecin. The systematic disassembly of apoptotic cells is accomplished by active caspases (Thornberry et al., Nature 356: 768-774 (1992); Nicholson et al., Trends Biochem. Sci. 22: 299-306 (1997)). A standard apoptosis assay is Promega's APO-ONE homogeneous caspase-3/7 assay, which takes advantage of this caspase activity to directly quantify the induction of apoptosis in cells (Thornberry et al., Nature 356: 768-774 (1992); Nicholson et al., Trends Biochem. Sci. 22: 299-306 (1997)). According to the hypothesis that NF-κB inhibition should enhance the activity of chemotherapeutic agents via the inhibition of anti-apoptotic signaling pathway—thus enhancement of apoptosis—(Boland, Biochem Soc Trans 29: 674-678 (2001); Chiao et al., Cancer 95: 1696-1705 (2002)), we investigated the effects of the imidazolines using this caspase-3/7 assay. This assay quantifies the level of apoptotic cell death induced by camptothecin with and without the imidazolines and will establish the direct level of enhancement of apoptosis by camptothecin.
# Induction of apoptosis using caspase 3/7 assay was as follows. CEM cells (CCRF-CEM); Amer. Type Culture Collection, Rockville, Md.) were grown in RPMI-1640 Media (Gibco-BRL, Rockville, Md.) supplemented with 10% fetal bovine serum, penicillin (614 ηg/mL), streptomycin (10 μg/mL) and hepes buffer, pH 7.2 at 37° C., 5% CO2. DMSO was used as the vector for all drugs and added in the control experiments. Cell cultures were treated with 1 μM, 0.1 μM or 10 nM of the imidazolines and allowed to incubate at 37° C., 5% CO2. An aliquote was transferred to a 96-well plate and mixed with an equal volume of Apo-ONE™ Homogenous Caspase-3/7 assay (Promega Corporation) reagent. The contents of the plate were gently mixed and allowed to incubate for 1 hour. The fluorescence of each well was then measured on a Molecular Imager FX Pro at 532 nm. All reported data was the average of two independent experiments unless otherwise indicated.
# NF-κB [4] = target: T1, NF-κB; test: EMSA of camptothecin activated NF-κB in CEM leukemia T-cells; type: cell-based; set-up: endogenous in cells; nuclear extract; details: for inhibition of camptothecin induced NF-κB nuclear binding: CPT 0.1 μM, 32 at 10 μM to 10 nM, PDTC 5 μM
# Protocol: CEM cells were incubated with and without varying concentrations of camptothecin (CPT). Positive controls included PMA/PHA activation (FIG. 11, lane 2). Lane 3 included a positive control using PMA/PHA activation followed by the treatment of the extract with a NF-κB p65 antibody to unambiguously identify the NF-κB/DNA complex.
# CEM cells were treated with various concentration of imidazoline 32, 30 minutes prior to activation by camptothecin (0.1 μM). […] Control lanes include: DNA only (lane 1), PMA/PHA activated NF-κB (lane 2), PMA/PHA activated NF-κB treated with a p65 antibody, which provide a supershift (lane 3) and the unactivated control (lane 4).
# EMSA assay for NF-κB-DNA binding was as follows. […] The cells were harvested by centrifugation, washed in ice cold PBS and the nuclear extracts were prepared as previously described (Dignam, et al., Nucl. Acids Res 11: 1475-1489 (1983)). The protein concentration of the extracts was determined according to the Method of Bradford (1976) with BioRad reagents. Nuclear extracts are incubated for 20 minutes at room temperature with a double stranded Cy3 labeled NF-kB consensus oligonucleotide, 5′-[sequence] […] The binding mixture (25 mL) contained 10 mM HEPES-NaOH pH 7.9, 4 mM tris-HCl, pH 7.9, 6.0 mM KCl, 1 mM EDTA, 1 mM DTT, 10% glycerol, 0.3 mg/mL bovide serum albumin and 1 mg of poly (dI.dC). The binding mixtures (10 mg of nuclear extract protein) were incubated for 20 minutes at room temrperature with 0.16 pmol of Cy3 labeled oligonucleotide. The mixture was loaded on a 4% polyacrylamide gel prepared in 1× tris borate/EDTA buffer and was electrophoresed at 200 V for 20 minutes. After electrophoresis the gel was analyzed using a phosphorimager (Biorad FX plus) for detection of the NF-kB—DNA binding.
# [5] = tested on: NF-κB p50/p65 heterodimer; test: p65-ELISA assay of NF-κB nuclear translocation in Jurkat cells; type: cell-based, Human; details: concentrations 100 ηM-5.0 μM, 30 minutes prior to PMA activation
# Protocol: Inhibition of the nuclear translocation of the p50/p65 heterodimer of NF-κB was confirmed by a p65-ELISA assay. Cells were treated with the PDTC (positive control-reported to inhibit IκB phosphorylation thus inhibiting NF-κB translocation), and imidazoline 32, 30 minutes prior to PMA activation, followed by the isolation of the nuclear extract after a 30 minute incubation period.
# The quantity of p65/p50 heterodimer that has translocated into the nucleus was measured using a NF-κB p65 sandwich ELISA assay (Imgenex Corp.). Jurkat cells were grown to 2×10^6 cells/mL and treated with 50 ng/mL PMA and 1 μg/mL PMA/PHA and incubated at 37° C., 5% CO2. The cells are harvested after 30 minutes and nuclear extracts are prepared as previously described by Dignam and coworkers (Dignam, et al., Nucl. Acids Res 11: 1475-1489 (1983)). The NF-κB p65 sandwich ELISA kit was then used to monitor and quantify p65 translocation into the nucleus according to the manufacturers protocol.
SMILES,Days Delay (tumor growth delay) (RIF-1 murine tumor) [days],Median (days to 4x) (RIF-1 murine tumor) [days],Days to 4x (Ave ±SE) (RIF-1 murine tumor) [days],chemopotentiation of camptothecin (RIF-1 murine tumor),chemopotentiation of cis-platin (RIF-1 murine tumor),pIC50 (NF-κB [2]),zone of inhibition diameter (Micrococcus luteus) [mm],tolerability in mice [3],inhibition of camptothecin induced NF-κB nuclear binding (NF-κB [4]),inhibition of NF-κB p50/p65 heterodimer nuclear translocation [5],inhibition at 0.1 µM (NF-κB [1]) [%],other results
"O=C(O)[C@@]1(c2ccccc2)N=C(c2ccccc2)N(Cc2ccccc2)[C@H]1c1ccccc1 (racemic) [Compound 4, Dl-(3S,4S)-1-Benzyl-2,4,5-triphenyl-4,5-dihydro-1H-imidazole-4-carboxylic acid]",-0.56,6.5,6.4 ± 0.2,No significant chemopotentiation,considerable chemopotentiation,7.14,12,,,,,tumors < 4x at Day 22 (RIF-1 murine tumor; cis-platin 4 mg/kg + compound 4 100 mg/kg IP): 4 of the 8; inhibition at 1 µM (NF-κB [1]; compound 1.0 μM): 65%; zone of inhibition diameter (Bacillus cereus): 11 mm; zone of inhibition diameter (Bacillus subtillus): 13 mm; zone of inhibition diameter (Staphylococcus aureus): 12 mm
"C[C@]1(C(=O)O)N=C(c2ccccc2)N(c2ccc(F)cc2)[C@H]1c1ccccc1 (racemic) [Compound 28, dl-(4S,5S)-1-(4-Fluorophenyl)-4-methyl-2,5-diphenyl-4,5-dihydro-1H-imidazole-4-carboxylic acid]",,,,,,,,well tolerated,,,,"Apoptosis (±S.D.) (CEM cells; Compound 1.0 μm alone, T-cells, 48 hour period, cells only = 1.00 (normalized)): 1.25 ± 0.18"
"N.S=C(S)N1CCCC1 [PDTC, reference compound]",,,,,,,,,decrease of binding,significant inhibition; also recorded: inhibited NF-κB translocation,,
"C[C@]1(C(=O)O)N=C(c2ccccc2)N[C@H]1c1ccccc1 (racemic) [Compound 7, Dl (3S,4S)-4-Methyl-2,5-diphenyl-4,5-dihydro-1H-imidazole-4-carboxylic acid]",,,,,,7.70,10,,,,38,
"C[C@]1(C(=O)O)N=C(c2ccccc2)N(Cc2ccccc2)[C@H]1c1ccncc1 (racemic) [Compound 6, Dl-(3S,4S)-1-Benzyl-4-methyl-2-phenyl-5-pyridin-4yl-4,5-dihydro-1H-imidazole-4-carboxylic acid]",-0.41,6.6,6.6 ± 0.3,significant chemopotentiation,significant chemopotentiation,6.52,10,,,,84,
"O=C(O)[C@@]1(c2ccccc2)N=C(c2ccccc2)N(Cc2ccccc2)[C@H]1c1ccccc1 (racemic) [Compound 32, dl-(4S,5S)-1-Benzyl-2,4,5-triphenyl-4,5-dihydro-1H-imidazole-4-carboxylic acid]",,,,,,,,well tolerated,inhibited camptothecin induced NF-κB nuclear binding in a dose responds manner,inhibition of nuclear translocation of NF-κB; also recorded: significantly inhibits,,"Apoptosis (±S.D.) (CEM cells): 1.98 ± 0.0001; chemopotentiation of cis-platin (apoptosis) (CEM cells; CEM cells, 0.1 micromolar cis-platin + 0.1 micromolar 32 versus 1.0 micromolar cis-platin): chemopotentiation of cis-platin; also recorded: chemopotentiate cis-platin; induction of apoptosis in combination with camptothecin (CEM cells; CEM cells, CPT 0.1 μM with varying concentrations of imidazoline, 48 hours): dose dependent enhancement of apoptosis; NF-κB-DNA complex formation (NF-κB [4]; 0.1 μM CPT + 10 μM compound 32 (lane 7 versus lane 5)): significant decrease"
